From US9980943B2, “Methods of treating muscular dystrophy” (BOARD OF REGENTS OF THE NEVADA SYSTEM OF HIGHER EDUCATION, …, priority 2013, dated 2018)

How the values were obtained:
Type in all cases: cell-based, mouse
[1] = test system: α7 integrin (LacZ reporter in α7βgal+/− myoblasts); test: Myoblast α7+/LacZ integrin FDG assay (Burkin assay in myoblasts, 96-well); conditions: α7+/LacZ myoblasts, 96-well
[2] = test system: β-galactosidase in CMV-LacZ C2C12 myoblasts; test: CMV-LacZ secondary screen in C2C12 myoblasts (β-Gal stabilizing assay); conditions: CMV-LacZ C2C12 myoblasts
In short: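 First, C2C12 myoblasts were transfected with a linearized CMV-LACZ vector and clonal lines selected by FDG β-gal assay. Then cells were exposed to compounds at 0.5, 1, 5, 10, 20 and 40 μM in 96-well format, two replicates each, and β-gal measured.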

[3] = test system: β-galactosidase in CMV-LacZ C2C12 myotubes; test: CMV-LacZ secondary screen in C2C12 myotubes (β-Gal stabilizing assay); conditions: C2C12 CMV-LacZ myotubes, fold relative to DMSO
In short: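 CMV-LacZ C2C12 line (clonal, FDG-screened); myoblasts/myotubes dosed 0.5–40 μM (0.5, 1, 5, 10, 20, 40 μM); n=2 per point; β-gal stabilization read-out.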

[4] = test system: α7 integrin (LacZ reporter in α7+/LacZ myotubes); test: Myotube α7 integrin FDG assay (Burkin assay in myotubes, 96-well); conditions: myotubes

Structure (SMILES)	Burkin Assay in Myoblasts, signal relative to DMSO ([1]; 0.5 uM)	Burkin Assay in Myoblasts, signal relative to DMSO ([1]; 1 uM)	Burkin Assay in Myoblasts, signal relative to DMSO ([1]; 5 uM)	Burkin Assay in Myoblasts, signal relative to DMSO ([1]; 10 uM)	Burkin Assay in Myoblasts, signal relative to DMSO ([1]; 20 uM)	Burkin Assay in Myoblasts, signal relative to DMSO ([1]; 40 uM)	CMV-LACZ in Myoblasts (β-galactosidase activity relative to DMSO) ([2]; 0.5 uM)	CMV-LACZ in Myoblasts (β-galactosidase activity relative to DMSO) ([2]; 1 uM)	CMV-LACZ in Myoblasts (β-galactosidase activity relative to DMSO) ([2]; 5 uM)	CMV-LACZ in Myoblasts (β-galactosidase activity relative to DMSO) ([2]; 10 uM)	CMV-LACZ in Myoblasts (β-galactosidase activity relative to DMSO) ([2]; 20 uM)	CMV-LACZ in Myoblasts (β-galactosidase activity relative to DMSO) ([2]; 40 uM)	CMV-LACZ in Myotubes, signal relative to DMSO ([3]; 0.5 uM)	CMV-LACZ in Myotubes, signal relative to DMSO ([3]; 1 uM)	CMV-LACZ in Myotubes, signal relative to DMSO ([3]; 5 uM)	CMV-LACZ in Myotubes, signal relative to DMSO ([3]; 10 uM)	CMV-LACZ in Myotubes, signal relative to DMSO ([3]; 20 uM)	CMV-LACZ in Myotubes, signal relative to DMSO ([3]; 40 uM)	Burkin Assay in Myotubes, α7 integrin LacZ reporter signal relative to DMSO ([4]; 0.5 uM)	Burkin Assay in Myotubes, α7 integrin LacZ reporter signal relative to DMSO ([4]; 1 uM)	further results
Cc1ccsc1-c1n[nH]c(=S)n1C1CCCCC1 [MLS000698617-01]	1.008	1.003	1.06	0.9317	0.8462	0.8966	1.3409	0.9852	1.1399	1.0603	1.1670	1.0356	1.1221	1.0842	0.9014	0.9614	1.0011	1.0111	1.197	1.075	Burkin Assay in Myotubes, α7 integrin LacZ reporter signal relative to DMSO ([4]; 5 uM): 1.139; Burkin Assay in Myotubes, α7 integrin LacZ reporter signal relative to DMSO ([4]; 10 uM): 0.945; Burkin Assay in Myotubes, α7 integrin LacZ reporter signal relative to DMSO ([4]; 20 uM): 1.092; Burkin Assay in Myotubes, α7 integrin LacZ reporter signal relative to DMSO ([4]; 40 uM): 0.7963
Nc1ncnc(NCc2ccccc2)c1[N+](=O)[O-] [MLS000698826-01]	1.019	1.008	1.246	0.9598	0.9937	1.023	0.9942	0.9717	0.8824	0.9013	1.2944	1.2519	1.2010	1.0200	1.1232	0.9634	1.0505	1.0789	1.008	0.8718	Burkin Assay in Myotubes, α7 integrin LacZ reporter signal relative to DMSO ([4]; 5 uM): 1.08; Burkin Assay in Myotubes, α7 integrin LacZ reporter signal relative to DMSO ([4]; 10 uM): 0.9001; Burkin Assay in Myotubes, α7 integrin LacZ reporter signal relative to DMSO ([4]; 20 uM): 0.9575; Burkin Assay in Myotubes, α7 integrin LacZ reporter signal relative to DMSO ([4]; 40 uM): 0.7844
NC(=O)c1sc2nc3c(cc2c1N)CCC3 [MLS000707378-01]	1.003	1.046	1.024	1.076	1.317	1.493	1.0175	1.0883	0.8309	0.8072	0.8667	0.6548	1.0537	1.3937	0.9294	1.0300	0.9689	0.9167	0.8716	0.8512	Burkin Assay in Myotubes, α7 integrin LacZ reporter signal relative to DMSO ([4]; 5 uM): 0.8899; Burkin Assay in Myotubes, α7 integrin LacZ reporter signal relative to DMSO ([4]; 10 uM): 1.241; Burkin Assay in Myotubes, α7 integrin LacZ reporter signal relative to DMSO ([4]; 20 uM): 1.046; Burkin Assay in Myotubes, α7 integrin LacZ reporter signal relative to DMSO ([4]; 40 uM): 1.051
